Source: BindingDB's records for PubMed 38748608 (University of Florida)

Target: Neuronal acetylcholine receptor alpha9/alpha10 (Homo sapiens)
Assay: Partial agonist activity at human alpha9alpha10 nAChR expressed as xenopus laevis oocytes assessed as increase in receptor desensitization measured after 120 secs by two-electrode voltage-clamp electrophysiology method

## CC[N+]1(C)CCN(c2ccc(NC(C)=O)cc2)CC1
  EC50: 640 nM
